Data as given in US11046673B1, “Tetrazolinone compounds and its use” (SUMITOMO CHEMICAL COMPANY, LIMITED, priority 2016, dated 2021).

System: wheat rust fungi (Puccinia recondita)
Assay: Test Example 13 / Comparative Test Example 1: wheat rust, foliar spray
Type: in vivo
Conditions: wheat (cv Shirogane), 12.5 ppm foliar spray, inoculated after 5 days
Protocol: A plastic pot was filled with soil and thereto wheat (cv; Shirogane) seeds were sown and the plants were grown in a greenhouse for 9 days. Any of the present compounds 1, 2, 3, 5, 6, 7, 8, 9, 10, 12, 13, 14, 15, 18, 19, 20, 21, 26, 27 and 28 each of which was made to a formulation according to the similar method to that of Formulation Example 6, was adjusted with water so as to be 12.5 ppm, and the adjusted solutions were sprayed to foliar parts so as to adhere adequately on the leaves of the above-mentioned wheat. After spraying the adjusted solutions, the plants were air-dried and were then cultivated at 20° C. under lighting for 5 days. The spores of wheat rust fungi (Puccinia recondita) were sprinkling-inoculated. After the inoculation, the plants were placed under a dark and humid condition at 23° C. for 1 day and were then cultivated at 20° C. under lighting for 8 days, and a lesion area was observed.
A plastic pot was filled with soils and thereto was seeded wheat (cv; Shirogane) and the plants were grown in a greenhouse for 9 days. 1-(2-{[2-methyl-4-(1-methyl-1H-pyrazol-3-yl)phenoxy]methyl}-3-methylphenyl)-4-m ethyl-4,5-dihydrotetrazole-5-one which was made to a formulation according to the similar method to that of Formulation Example 6 was adjusted with water so as to be 12.5 ppm. […]

Cc1cc(-c2ccn(C)n2)ccc1OCc1c(C)cccc1-n1nnn(C)c1=O [1-(2-{[2-methyl-4-(1-methyl-1H-pyrazol-3-yl)phenoxy]methyl}-3-methylphenyl)-4-m ethyl-4,5-dihydrotetrazole-5-one]
lesion area compared to the lesion area in untreated plants: ≥ 70%
